Measurements: PMC12282101, “Heat shock protein 90 chaperone activity is required for hepatitis A virus replication” (Journal of Virology, 2025)
“Also recorded” adds a separate entry of the source. Where two headings read alike, the source gives them in different places.

How the values were obtained:
[1] = test system: mouse-passaged HM175 strain of HAV; design: species or system Ifnar1^-/- mice; details: in vivo, ip
293T cells = experiment: Cytotoxicity in 293T cells
Huh-7.5.1 cells [2] = details: Huh-7.5 or Huh-7.5.1 cells, RT-qPCR experiments
HM175/18f virus [3] = test system: HM175/18f virus
18f-NLuc reporter virus [4] = experiment: microbe, parasite or virus in culture; assay type: cell-based, Hepatitis A virus; details: read-out: IC50, HAV replication by NLuc
Procedure: Cells were lysed in 1× passive lysis buffer (Promega, #E1941) for 15 min at room temperature, then lysates were transferred to opaque white 96-well plates (Corning, #3912). NLuc activity was quantified using the NLuc GLOW Assay kit (Nanolight Technology, #325), and FLuc assays were carried out with the Luciferase Assay System (Promega, E1500). Luminescence was measured using a Biotek Synergy II multi-mode plate reader (BioTek Instruments).

HAV [5] = experiment: microbe, parasite or virus in culture; assay type: cell-based, Hepatitis A virus; details: read-out: IC50, HAV replication by RT-qPCR
18f-NLuc reporter virus [6] = assay type: cell-based, Hepatitis A virus
HAV IRES = assay type: cell-based, Hepatitis A virus; details: 100 nM
HAV-FLuc = experiment: microbe, parasite or virus in culture; assay type: cell-based, Hepatitis A virus
in vitro [7] = details: human, CC50, Huh-7.5 cells, cellular ATP assay
poliovirus = details: HeLa S3 cells; read-out: IC50, poliovirus replication; cited from earlier work
18f-NLuc reporter virus [8] = experiment: microbe, parasite or virus in culture; assay type: cell-based, Hepatitis A virus; details: Hepatovirus A, FRhK-4, 48 h, read-out: IC50, HAV replication by NLuc
HAV [9] = details: FRhK4 fetal rhesus kidney cells; ref 16 Aragonès et al.; read-out: IC50, HAV replication; cited from earlier work
HAV [10] = experiment: microbe, parasite or virus in culture; assay type: cell-based, Hepatitis A virus; details: Hepatovirus A; 30 nM, Huh-7.5.1 cells; read-out: Inhibition of infectious virus released
PeV-A1-NLuc = assay type: cell-based, human parechovirus A1; details: A549 cells
18f-NLuc reporter virus [11] = experiment: microbe, parasite or virus in culture; assay type: cell-based, Hepatitis A virus; details: Hepatovirus A, Huh-7.5.1, 72 h, read-out: Normalized HAV production
HM175/18f virus [12] = experiment: microbe, parasite or virus in culture; details: Hepatovirus A
RV-B14-FLuc = assay type: cell-based, rhinovirus B14; details: up to 1 µM, Huh-7.5 cells
Huh-7.5.1 cells [13] = experiment: Cell viability in the chemical screen (Cell TiterGlo); details: 10 µM compound, 72 h
in vitro [14] = details: rhesus monkey, CC50, FRhK4 cells
3C^pro [15] = assay type: cell-based, Hepatitis A virus
PV1-NLuc [16] = experiment: microbe, parasite or virus in culture; assay type: cell-based, type 1 poliovirus; details: Enterovirus C, FRhK-4, 16 h, read-out: IC50, PV1-NLuc replication
3C^pro [17] = assay type: cell-based, Hepatitis A virus; remark: listed apart in the source
18f virus = assay type: cell-based, Hepatitis A virus; details: cells infected 72 h, then treated 24 h
PV1-NLuc [18] = experiment: microbe, parasite or virus in culture; assay type: cell-based, type 1 poliovirus; details: Enterovirus C, Huh7.5, 16 h, read-out: IC50, PV1-NLuc replication
18f-NLuc reporter virus [19] = experiment: microbe, parasite or virus in culture; details: Hepatovirus A, Huh7.5, 48 h, read-out: IC50, HAV replication by NLuc
ACC1 = experiment: Immunoblot of ACC1 in Huh-7.5 cells; assay type: cell-based, human; details: 200 nM, 24 hours

C=CCNC1=C2C[C@@H](C)C[C@H](OC)[C@H](O)[C@@H](C)/C=C(\C)[C@H](OC(N)=O)[C@@H](OC)/C=C\C=C(/C)C(=O)NC(=CC1=O)C2=O [17-AAG]
Area occupied by IBA-positive cells in liver section [1]: significantly reduced | Increase in serum alanine aminotransferase (ALT) activity versus vehicle [1]: significantly lower | Inflammatory cell infiltrates in liver sections (H&E) [1]: notably fewer and smaller in size | Number of IBA1-positive cells in liver section [1]: significantly reduced | Viral RNA in feces versus vehicle [1]: significantly reduced | Viral RNA in liver versus vehicle [1]: significantly reduced | Viral RNA in serum versus vehicle [1]: significantly reduced | CC50 (293T cells): > 1000 nM | CC50 (Huh-7.5.1 cells [2]): 418 nM | Fold by which IC50 is below CC50 (HM175/18f virus [3]; hepatocyte-derived cells, RT-qPCR): approximately 30 fold | IC50 (HM175/18f virus [3]; read-out: IC50, HAV replication by RT-qPCR): 14.2 nM | IC50 (18f-NLuc reporter virus [4]; 293T cells): 11.7 nM | IC50 (HAV [5]; PH5CH8 cells): 3.2 nM | NLuc expression at 48 hours post-infection (18f-NLuc reporter virus [6]): neither case did either HSP90 inhibitor reduce NLuc expression | GFP synthesis from circRNA HAV IRES reporter (HAV IRES): neither geldanamycin nor 17-AAG inhibited; also recorded: had no effect

COC1=C2C[C@@H](C)C[C@H](OC)[C@H](O)[C@@H](C)/C=C(\C)[C@H](OC(N)=O)[C@@H](OC)/C=C\C=C(/C)C(=O)NC(=CC1=O)C2=O [Geldanamycin]
Replication of subgenomic HAV RNA replicon (in words) (HAV-FLuc): potently inhibited | IC50 (HAV-FLuc; Hepatovirus A, Huh7.5, 24 h, read-out: IC50, HAV-FLuc replicon): 29.1 nM | CC50 (in vitro [7]): 5100 nM | IC50 (poliovirus): 110 nM | IC50 (18f-NLuc reporter virus [8]): 804 nM | IC50 (HAV [9]): 5370 nM | inhibition at 0.03 µM (HAV [10]): > 50% | Replication of subgenomic human parechovirus A1 replicon (in words) (PeV-A1-NLuc): minimally inhibits; also recorded: resistant | activity at 10 µM (18f-NLuc reporter virus [11]): 0.0718% | IC50 (HM175/18f virus [12]; Huh7.5, in Homo sapiens, read-out: 50% inhibitory concentration, HAV replication): 8.7 to 11.8 nM | IC50 (HM175/18f virus [12]; Huh-7.5.1, read-out: IC50, HAV replication by RT-qPCR): 11.8 nM | Luciferase expression from subgenomic rhinovirus B14 replicon (in words) (RV-B14-FLuc): does not inhibit | Luciferase expression from subgenomic rhinovirus B14 replicon (in words) (RV-B14-FLuc; listed as geldanamycin): fails to inhibit | Viability Percent DMSO (Huh-7.5.1 cells [13]): 61 Percent DMSO | CC50 (in vitro [14]): > 10000 nM | CC50 (in vitro [14]; cellular ATP assay): 59000 nM | IC50 (18f-NLuc reporter virus [4]; Hepatovirus A, HEK-293T): 4.7 nM | Cleavage of GFP-MAVS by 3ABC (3C^pro [15]): no impact | IC50 (PV1-NLuc [16]): > 10000 nM | Inhibition of 3ABCD processing (3C^pro [17]; 0.1 µM): no inhibition | Amount of 3ABC product from HA-3ABCD (3C^pro [17]; 1 µM): modestly reduced | IC50 (HAV [5]; Hepatovirus A): 4.3 nM | VP1 and 3ABC proteins in infected cell lysates (18f virus): concentration-related decreases | NLuc expression at 48 hours post-infection (18f-NLuc reporter virus [6]): neither case did either HSP90 inhibitor reduce NLuc expression | IC50 (PV1-NLuc [18]): 183 nM | IC50 (18f-NLuc reporter virus [19]): 8.7 nM | GFP synthesis from circRNA HAV IRES reporter (HAV IRES): had no effect | GFP synthesis from circRNA HAV IRES reporter (HAV IRES; listed as geldanamycin): neither geldanamycin nor 17-AAG inhibited | Abundance of ACC1 (ACC1): did not reduce
